In US20250163057A1, “DCN-1 MODULATING COMPOUNDS AND METHODS OF USE THEREOF” (Cellarity, Inc., priority 2023, published 2025):
Where two headings read alike, the source gives them in different places.

Legend:
[1] = molecular target: DCN1 (DCUND1) protein PONY domain (Homo sapiens (Human), UniProt Q96GG9); experiment: TR-FRET assay, DCN1 binding with FAM-labeled probe
How it was run: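 Binding was read as the TR-FRET ratio between a FAM-tagged inhibitor probe and Tb-labeled biotinylated E. coli-expressed DCN1 PONY domain, measured 1, 5 and 24 h after compound addition. The two setups used 5 nM protein/20 nM FAM-probe or 0.31 nM protein/900 nM total probe (100 nM labeled), in TritonX buffer with 200 mM NaCl.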

[2] = tested on: Cullin-3 (CUL3) neddylation; experiment: AlphaLISA assay for Cullin-3 (CUL3) neddylation in TF 1 cells; type: cell-based; settings: Homo sapiens, 3 hours treatment
Method: An AiphaLISA assay was performed to evaluate the ability of the compounds to suppress neddylation, which is downstream from DCN-1 and DCN-2. A stronger inhibition of DCN-1 and DCN-2 is expected to result in a suppression of neddylation as shown by a lower AlphaLISA signal. The AlphaLISA assay for detecting Cullin-3 (CUL3) neddylation was performed according to manufacturer instructions (Revvity, Hopkinton, MA). Briefly, TF 1 cells (ATCC) were plated in Iscove's Modified Dulbecco's Medium (IMIDM) without supplements in 384-well plates. These cells were treated with […] for 3 hours before lysing them with AlphaLISA lysis buffer, 5× (Revvity). To detect the level of CUL3 neddylation, biotinylated anti-NEDD8 antibody, was added followed by AlphaLISA Acceptor beads conjugated with anti-CUL3 antibody. After overnight incubation, Streptavidin-coated Alpha Donor beads were added and incubated for 1 hour. The AlphaLISA signal was then read on a VICTOR Nivo Multimode Microplate Reader (Revvity, Hopkinton, MA). The positive control was 1 μM DI-1548, which is reported to reduce CUL3 neddylation, also referred to as C-1 in Example 41 (Zhou et al. Nature Comm. 2021). The neddylation signal was normalized such that the percent inhibition is 0% for vehicle control and 100% for positive control. The dose-response curves were fitted with the Hill equation to obtain IC50 values (Graphpad Prism).

[3] = 24 hr after treatment with compound, read-out: TR FRET IC50 24 hr
[4] = TR FRET IC50 1 hr (nM), 1 hr after treatment with compound
[5] = read-out: TR FRET IC50 1 hr, 1 hr after treatment with compound

Chain of DCN1 (DCUND1) protein PONY domain (Q96GG9 60-248): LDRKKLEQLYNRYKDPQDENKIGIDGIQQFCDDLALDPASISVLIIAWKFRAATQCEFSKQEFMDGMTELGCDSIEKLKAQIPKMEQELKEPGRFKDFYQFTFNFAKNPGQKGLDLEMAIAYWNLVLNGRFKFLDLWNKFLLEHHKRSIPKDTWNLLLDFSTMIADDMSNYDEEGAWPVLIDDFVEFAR

Row | Structure (SMILES) | IC50 [1, 3] | IC50 [1, 4] | IC50 ([2]; TF-1, 3 h) | IC50 [1, 5] | IC50 [2]
1 | CN1C(=O)[C@@H](NC(=O)c2cccc(C(F)(F)F)c2)[C@@H](C2CC2)c2c(C(=O)N3[C@H](C#N)C[C@H]4C[C@H]43)nn(C3CCOCC3)c21 (relative stereo) [Compound I-650, N-((4S*,5S*)-3-((1R,3S,5R)-3-cyano-2-azabicyclo[3.1.0]hexane-2-carbonyl)-4-cyclopropyl-7-methyl-6-oxo-1-(tetrahydro-2H-pyran-4-yl)-4,5,6,7-tetrahydro-1H-pyrazolo[3,4-b]pyridin-5-yl)-3-(trifluoromethyl)benzamide] | ≤ 200 nM | ≤ 200 nM | ≤ 0.1 µM |  | 
2 | CCN1C(=O)[C@H](NC(=O)c2cccc(C(F)(F)F)c2)[C@H](c2ccc(F)cc2)c2c(C(=O)N3CCC[C@H]3C#N)nn(-c3cccc(OCCCN(C)C4COC4)c3)c21 [Compound I-480, N-((4R,5R)-3-((S)-2-cyanopyrrolidine-1-carbonyl)-7-ethyl-4-(4-fluorophenyl)-1-(3-(3-(methyl(oxetan-3-yl)amino)propoxy)phenyl)-6-oxo-4,5,6,7-tetrahydro-1H-pyrazolo[3,4-b]pyridin-5-yl)-3-(trifluoromethyl)benzamide] | 1000 to 3000 nM | 1000 to 3000 nM | > 1 µM |  | 
3 | CCN1C(=O)[C@@H](NC(=O)c2cccc(C(F)(F)F)c2)[C@@H](C2CC2)c2c(C(=O)N3[C@H](C#N)C[C@H]4C[C@H]43)nn(C(C)(C)C)c21 (mixture of isomers) [Compound I-517] | 200 to 1000 nM | 1000 to 3000 nM | 0.1 to 1 µM |  | 
4 | CCN1C(=O)[C@@H](NC(=O)c2c(Cl)ccc(OC)c2F)[C@@H](C2CC2)c2c(C(=O)N3[C@H](C#N)C[C@H]4C[C@H]43)nn(C3CCOCC3)c21 [Compound I-697] | 1000 to 3000 nM | 1000 to 3000 nM | > 1 µM |  | 
5 | CCN1C(=O)[C@@H](NC(=O)[C@@H]2CCc3nccc(=O)n32)[C@@H](C2CC2)c2c(C(=O)N3[C@H](C#N)C[C@H]4C[C@H]43)nn(C3CCOCC3)c21 [Compound I-548] | 1000 to 3000 nM | 1000 to 3000 nM | > 1 µM |  | 
6 | CCN1C(=O)[C@@H](NC(=O)c2cccc(C(F)(F)F)c2)[C@@H](c2ccc(F)cc2)c2c(CN(C)CC#N)nn(-c3ccccc3)c21 [Compound I-417] | 200 to 1000 nM | 1000 to 3000 nM | 0.1 to 1 µM |  | 
7 | CN1C(=O)[C@H](NC(=O)c2cccc(C(F)(F)F)c2)[C@H](C2CC2)c2c(C(=O)N3[C@H](C#N)C[C@H]4C[C@H]43)nn(C3CCOCC3)c21 (relative stereo) [Compound I-528, N-((4R*,5R*)-3-((1 R,3S,5R)-3-cyano-2-azabicyclo[3.1.0]hexane-2-carbonyl)-4-cyclopropyl-7-methyl-6-oxo-1-(tetrahydro-2H-pyran-4-yl)-4,5,6,7-tetrahydro-1H-pyrazolo [3,4-b]pyridin-5-yl)-3-(trifluoromethyl)benzamide] | 1000 to 3000 nM | 1000 to 3000 nM | > 1 µM |  | 
8 | CCN1C(=O)[C@@H](NC(=O)c2cccc(C(F)(F)F)c2F)[C@@H](C2CC2)c2c(C(=O)N3[C@H](C#N)C[C@H]4C[C@H]43)nn(C3CCOCC3)c21 [Compound I-514] | ≤ 200 nM |  |  | ≤ 200 nM | ≤ 0.1 µM
9 | CCN1C(=O)[C@H](NC(=O)c2cccc(C(F)(F)F)c2)[C@H](c2ccc(F)cc2)c2c(C(=O)N3CCNC[C@H]3C#N)nn(-c3ccccc3)c21 [Compound I-453] | 200 to 1000 nM | 1000 to 3000 nM | > 1 µM |  | 
10 | C=C(CN1CC2CCC(C1)O2)C(=O)NCc1nn(-c2ccccc2)c2c1[C@H](c1ccc(F)cc1)[C@H](NC(=O)c1cccc(C(F)(F)F)c1)C(=O)N2CC [Compound I-50] | ≤ 200 nM |  | ≤ 0.1 µM | ≤ 200 nM | 
11 | CCCn1nc(C(=O)N2CCC[C@H]2C#N)c2c1N(CC)C(=O)[C@@H](NC(=O)c1cccc(C(F)(F)F)c1)[C@H]2c1ccc(F)cc1 [Compound I-428] | ≤ 200 nM | 200 to 1000 nM | ≤ 0.1 µM |  | 
